pIC50: −log10 of the molar value. Read-outs that look alike come from different tables or passages of the source.
Target: human NaV 1.8 (Homo sapiens, UniProt Q9Y5Y9)
Assay: E-VIPR assay detecting and measuring NaV inhibition properties
Assay type: cell-based
Conditions: HEK cells expressing truncated human NaV 1.8
How it was run: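 Membrane potential was followed by coumarin/oxonol FRET during electrical field stimulation of matrigel-seeded HEK cells carrying truncated human NaV1.8 plus KIR2.1. Dosing used 11 points, 3-fold steps, top 300 nM final, 0.625% DMSO, with or without 25% human serum.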

[1] = no human serum, read-out: IC50 in the E-VIPR Assay
[2] = in the presence of human serum (compound numbers followed by *), read-out: IC50 in the E-VIPR Assay, performed in the presence of human serum

Sequence of human NaV 1.8 (Q9Y5Y9 126-399 limits assumed): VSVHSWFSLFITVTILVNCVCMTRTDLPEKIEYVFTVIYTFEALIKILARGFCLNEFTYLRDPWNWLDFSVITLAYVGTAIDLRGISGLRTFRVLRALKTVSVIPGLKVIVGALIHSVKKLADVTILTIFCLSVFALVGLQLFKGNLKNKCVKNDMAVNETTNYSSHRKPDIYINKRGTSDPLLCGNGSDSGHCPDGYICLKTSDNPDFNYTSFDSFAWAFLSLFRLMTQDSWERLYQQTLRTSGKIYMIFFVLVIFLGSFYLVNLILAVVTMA
Sequence of human NaV 1.8 (Q9Y5Y9 660-890 limits assumed): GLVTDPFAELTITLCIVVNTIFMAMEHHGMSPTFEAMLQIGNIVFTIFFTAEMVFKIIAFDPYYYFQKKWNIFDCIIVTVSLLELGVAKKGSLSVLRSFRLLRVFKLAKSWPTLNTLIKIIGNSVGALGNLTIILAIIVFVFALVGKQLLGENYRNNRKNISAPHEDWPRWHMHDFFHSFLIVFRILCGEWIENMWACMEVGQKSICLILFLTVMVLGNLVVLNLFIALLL
Sequence of human NaV 1.8 (Q9Y5Y9 1148-1722 limits assumed): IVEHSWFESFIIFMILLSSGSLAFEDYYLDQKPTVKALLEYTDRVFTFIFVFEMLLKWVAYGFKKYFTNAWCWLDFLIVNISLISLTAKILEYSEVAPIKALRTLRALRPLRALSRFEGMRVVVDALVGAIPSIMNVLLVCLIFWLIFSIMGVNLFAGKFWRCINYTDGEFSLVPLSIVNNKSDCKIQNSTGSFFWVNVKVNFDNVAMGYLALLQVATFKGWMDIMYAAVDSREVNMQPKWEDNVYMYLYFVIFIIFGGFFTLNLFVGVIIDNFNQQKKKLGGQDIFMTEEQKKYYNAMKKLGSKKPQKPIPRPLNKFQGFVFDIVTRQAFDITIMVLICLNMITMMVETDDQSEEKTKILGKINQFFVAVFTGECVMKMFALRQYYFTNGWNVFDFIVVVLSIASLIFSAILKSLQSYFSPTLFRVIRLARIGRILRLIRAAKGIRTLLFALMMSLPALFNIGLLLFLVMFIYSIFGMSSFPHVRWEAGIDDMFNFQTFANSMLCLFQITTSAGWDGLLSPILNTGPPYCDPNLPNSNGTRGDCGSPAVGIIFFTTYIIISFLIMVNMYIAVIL

pIC50 [1] | pIC50 [2] | Structure (SMILES)
> 8.00 | – | COc1c([C@H]2[C@H](C(=O)Nc3ccc(C(=O)O)nc3)O[C@@](C)(C(F)(F)F)[C@H]2C)ccc(F)c1F [Compound 19, 5-[[(2R,3S,4S,5R)-3-(3,4-difluoro-2-methoxy-phenyl)-4,5-dimethyl-5-(trifluoromethyl)tetrahydrofuran-2-carbonyl]amino]pyridine-2-carboxylic acid]
7.00 to 8.00 | – | COc1c([C@H]2[C@H](C(=O)Nc3cc(CO)nn3C)O[C@@](C)(C(F)(F)F)[C@H]2C)ccc(F)c1F [Compound 20, (2R,3S,4S,5R)-3-(3,4-difluoro-2-methoxy-phenyl)-N-[5-(hydroxymethyl)-2-methyl-pyrazol-3-yl]-4,5-dimethyl-5-(trifluoromethyl)tetrahydrofuran-2-carboxamide]
7.00 to 8.00 | – | COc1c([C@H]2[C@H](C(=O)Nc3cnc(CO)n3C)O[C@@](C)(C(F)(F)F)[C@H]2C)ccc(F)c1F [Compound 21, (2R,3S,4S,5R)-3-(3,4-difluoro-2-methoxy-phenyl)-N-[2-(hydroxymethyl)-3-methyl-imidazol-4-yl]-4,5-dimethyl-5-(trifluoromethyl)tetrahydrofuran-2-carboxamide]
> 8.00 | – | COc1c([C@H]2[C@H](C(=O)Nc3ccnc(CN[C@@H]4CCOC4)c3)O[C@@](C)(C(F)(F)F)[C@H]2C)ccc(F)c1F [Compound 23]
– | ≤ 6.00 | CNCc1cc(NC(=O)C2OC(C)(C(F)(F)F)C(C)C2c2ccc(F)c(F)c2OC)c(F)cn1 (stereo not drawn) [Compound 58, 3-(3,4-difluoro-2-methoxy-phenyl)-N-[5-fluoro-2-(methylaminomethyl)-4-pyridyl]-4,5-dimethyl-5-(trifluoromethyl)tetrahydrofuran-2-carboxamide]
≤ 6.00 | – | COCCNCc1cc(NC(=O)C2OC(C)(C(F)(F)F)C(C)C2c2ccc(F)c(F)c2OC)ccn1 (stereo not drawn) [Compound 59, 3-(3,4-difluoro-2-methoxy-phenyl)-N-[2-[(2-methoxyethylamino)methyl]-4-pyridyl]-4,5-dimethyl-5-(trifluoromethyl)tetrahydrofuran-2-carboxamide]
> 8.00 | – | COCCNCc1cc(NC(=O)C2OC(C)(C(F)(F)F)C(C)C2c2ccc(F)c(F)c2OC)ccn1 (stereo not drawn) [Compound 60, 3-(3,4-difluoro-2-methoxy-phenyl)-N-[2-[(2-methoxyethylamino)methyl]-4-pyridyl]-4,5-dimethyl-5-(trifluoromethyl)tetrahydrofuran-2-carboxamide]
≤ 6.00 | – | COc1c(C2C(C(=O)Nc3ccnc(CO)c3)OC(C)(C(F)(F)F)C2C)ccc(F)c1F (stereo not drawn) [Compound 61, 3-(3,4-difluoro-2-methoxy-phenyl)-N-[2-(hydroxymethyl)-4-pyridyl]-4,5-dimethyl-5-(trifluoromethyl)tetrahydrofuran-2-carboxamide]
> 8.00 | – | COc1c(C2C(C(=O)Nc3ccnc(S(=O)(=O)CCO)c3)OC(C)(C(F)(F)F)C2C)ccc(F)c1F (stereo not drawn) [Compound 62, 3-(3,4-difluoro-2-methoxy-phenyl)-N-[2-(2-hydroxyethylsulfonyl)-4-pyridyl]-4,5-dimethyl-5-(trifluoromethyl)tetrahydrofuran-2-carboxamide]
> 8.00 | – | Cc1c(F)ccc(C2C(C(=O)Nc3ccnc(S(C)(=O)=O)c3)OC(C)(C(F)(F)F)C2C)c1OC(F)F (stereo not drawn) [Compound 97, 3-[2-(difluoromethoxy)-4-fluoro-3-methyl-phenyl]-4,5-dimethyl-N-(2-methylsulfonyl-4-pyridyl)-5-(trifluoromethyl)tetrahydrofuran-2-carboxamide]
> 8.00 | – | Cc1c(F)ccc(C2C(C(=O)Nc3ccn(C)c(=O)c3)OC(C)(C(F)(F)F)C2C)c1OC(F)F (stereo not drawn) [Compound 98, 3-[2-(difluoromethoxy)-4-fluoro-3-methyl-phenyl]-4,5-dimethyl-N-(1-methyl-2-oxo-4-pyridyl)-5-(trifluoromethyl)tetrahydrofuran-2-carboxamide]
> 8.00 | – | CCOc1c(C2C(C(=O)Nc3ccnc(S(C)(=O)=NC)c3)OC(C)(C(F)(F)F)C2C)ccc(F)c1F (stereo not drawn) [Compound 113, N-[2-(N,S-dimethylsulfonimidoyl)-4-pyridyl]-3-(2-ethoxy-3,4-difluoro-phenyl)-4,5-dimethyl-5-(trifluoromethyl)tetrahydrofuran-2-carboxamide]
6.00 to 7.00 | – | CCOc1c(C2C(C(=O)Nc3cc(S(C)(=N)=O)c[n+](C)c3)OC(C)(C(F)(F)F)C2C)ccc(F)c1F (stereo not drawn) [Compound 114, 3-(2-ethoxy-3,4-difluoro-phenyl)-4,5-dimethyl-N-[1-methyl-5-(methylsulfonimidoyl)pyridin-1-ium-3-yl]-5-(trifluoromethyl)tetrahydrofuran-2-carboxamide]
≤ 6.00 | – | CC(C)Oc1c(C2C(C(=O)Nc3cc(S(C)(=O)=O)ccn3)OC(C)(C(F)(F)F)C2C)ccc(F)c1F (stereo not drawn) [Compound 115, 3-(3,4-difluoro-2-isopropoxy-phenyl)-4,5-dimethyl-N-(4-methylsulfonyl-2-pyridyl)-5-(trifluoromethyl)tetrahydrofuran-2-carboxamide]
6.00 to 7.00 | – | CC(C)Oc1c(C2C(C(=O)Nc3cc(S(C)(=O)=O)ccn3)OC(C)(C(F)(F)F)C2C)ccc(F)c1F (stereo not drawn) [Compound 116, 3-(3,4-difluoro-2-isopropoxy-phenyl)-4,5-dimethyl-N-(4-methylsulfonyl-2-pyridyl)-5-(trifluoromethyl)tetrahydrofuran-2-carboxamide]
> 8.00 | – | CN=S(C)(=O)c1cc(NC(=O)C2OC(C)(C(F)(F)F)C(C)C2c2ccc(F)c(C)c2OC)ccn1 (stereo not drawn) [Compound 152, N-[2-(N,S-dimethylsulfonimidoyl)-4-pyridyl]-3-(4-fluoro-2-methoxy-3-methyl-phenyl)-4,5-dimethyl-5-(trifluoromethyl)tetrahydrofuran-2-carboxamide]
7.00 to 8.00 | – | COc1c(C2C(C(=O)Nc3ccc(C(N)=O)nc3)OC(C)(C(F)(F)F)C2C)ccc(C(F)F)c1F (stereo not drawn) [Compound 158, 5-[[3-[4-(difluoromethyl)-3-fluoro-2-methoxy-phenyl]-4,5-dimethyl-5-(trifluoromethyl)tetrahydrofuran-2-carbonyl]amino]pyridine-2-carboxamide]
≤ 6.00 | – | COc1c(C2C(C(=O)Nc3ccc(C(N)=O)nc3)OC(C)(C(F)(F)F)C2C)ccc(C(F)F)c1F (stereo not drawn) [Compound 159, 5-[[3-[4-(difluoromethyl)-3-fluoro-2-methoxy-phenyl]-4,5-dimethyl-5-(trifluoromethyl)tetrahydrofuran-2-carbonyl]amino]pyridine-2-carboxamide]
> 8.00 | – | COc1c([C@H]2[C@H](C(=O)Nc3cn(S(C)(=O)=O)nc3C)O[C@@](C)(C(F)(F)F)[C@H]2C)ccc(F)c1F [Compound 180, (2R,3S,4S,5R)-3-(3,4-difluoro-2-methoxyphenyl)-4,5-dimethyl-N-(3-methyl-1-(methylsulfonyl)-1H-pyrazol-4-yl)-5-(trifluoromethyl)tetrahydrofuran-2-carboxamide]
7.00 to 8.00 | – | COc1c([C@H]2[C@H](C(=O)Nc3ccnc(CN4CCOCC4)c3)O[C@@](C)(C(F)(F)F)[C@H]2C)ccc(F)c1F [Compound 181, (2R,3S,4S,5R)-3-(3,4-difluoro-2-methoxyphenyl)-4,5-dimethyl-N-(2-(morpholinomethyl)pyridin-4-yl)-5-(trifluoromethyl)tetrahydrofuran-2-carboxamide]
7.00 to 8.00 | – | COc1c([C@H]2[C@H](C(=O)Nc3ccnc(CN4CCC(F)(F)C4)c3)O[C@@](C)(C(F)(F)F)[C@H]2C)ccc(F)c1F [Compound 182, (2R,3S,4S,5R)-3-(3,4-difluoro-2-methoxyphenyl)-N-(2-((3,3-difluoropyrrolidin-1-yl)methyl)pyridin-4-yl)-4,5-dimethyl-5-(trifluoromethyl)tetrahydrofuran-2-carboxamide]
> 8.00 | – | COc1c([C@H]2[C@H](C(=O)Nc3ccnc(CN(C)C)c3)O[C@@](C)(C(F)(F)F)[C@H]2C)ccc(F)c1F [Compound 183, (2R,3S,4S,5R)-3-(3,4-difluoro-2-methoxyphenyl)-N-(2-((dimethylamino)methyl)pyridin-4-yl)-4,5-dimethyl-5-(trifluoromethyl)tetrahydrofuran-2-carboxamide]
> 8.00 | – | COc1c([C@H]2[C@H](C(=O)Nc3ccnc(CN4CCCC4)c3)O[C@@](C)(C(F)(F)F)[C@H]2C)ccc(F)c1F [Compound 184, (2R,3S,4S,5R)-3-(3,4-difluoro-2-methoxyphenyl)-4,5-dimethyl-N-(2-(pyrrolidin-1-ylmethyl)pyridin-4-yl)-5-(trifluoromethyl)tetrahydrofuran-2-carboxamide]
– | ≤ 6.00 | COc1c([C@H]2[C@H](C(=O)Nc3ccc4ncn(C)c4c3)O[C@@](C)(C(F)(F)F)[C@H]2C)ccc(F)c1F [Compound 185, (2R,3S,4S,5R)-3-(3,4-difluoro-2-methoxyphenyl)-4,5-dimethyl-N-(1-methyl-1H-benzo[d]imidazol-6-yl)-5-(trifluoromethyl)tetrahydrofuran-2-carboxamide]
7.00 to 8.00 | – | COc1c([C@H]2[C@H](C(=O)Nc3ccc(C#N)cn3)O[C@@](C)(C(F)(F)F)[C@H]2C)ccc(F)c1F [Compound 187, (2R,2S,4S,5R)-N-(5-cyanopyridin-2-yl)-3-(3,4-difluoro-2-methoxyphenyl)-4,5-dimethyl-5-(trifluoromethyl)tetrahydrofuran-2-carboxamide]
> 8.00 | – | COc1c([C@H]2[C@H](C(=O)Nc3ccnc(S(N)(=O)=O)c3)O[C@@](C)(C(F)(F)F)[C@H]2C)ccc(F)c1F [Compound 188, (2R,3S,4S,5R)-3-(3,4-difluoro-2-methoxyphenyl)-4,5-dimethyl-N-(2-sulfamoylpyridin-4-yl)-5-(trifluoromethyl)tetrahydrofuran-2-carboxamide]
7.00 to 8.00 | – | COc1c([C@H]2[C@H](C(=O)Nc3ccnc(OC(F)F)c3)O[C@@](C)(C(F)(F)F)[C@H]2C)ccc(F)c1F [Compound 189, (2R,3S,4S,5R)-3-(3,4-difluoro-2-methoxyphenyl)-N-(2-(difluoromethoxy)pyridin-4-yl)-4,5-dimethyl-5-(trifluoromethyl)tetrahydrofuran-2-carboxamide]

— patent US20240368135A1 (VERTEX PHARMACEUTICALS INCORPORATED, priority 2021, published 2024)
